Assay results published in the NIST ThermoML archive (doi:10.1021/je700260f).

Settings: Liquid, Vibrating tube method

FC(C(F)(F)F)C(F)(F)F [1,1,1,2,3,3,3-heptafluoropropane]
Settings	mass density [kg/m3]
333.13 K, 4181 kPa	1264.9
333.13 K, 4207 kPa	1265.2
333.13 K, 4241 kPa	1265.8
333.13 K, 4278 kPa	1266.2
333.13 K, 4309 kPa	1266.6
333.13 K, 4338 kPa	1266.8
333.13 K, 4364 kPa	1267.4
333.13 K, 4398 kPa	1267.7
333.13 K, 4432 kPa	1268.2
333.13 K, 4463 kPa	1268.6
333.13 K, 4762 kPa	1272.2
333.13 K, 4802 kPa	1272.8
333.13 K, 4834 kPa	1273.3
333.13 K, 4861 kPa	1273.7
333.13 K, 4893 kPa	1274.1
333.13 K, 4916 kPa	1274.2
333.13 K, 4947 kPa	1274.6
333.13 K, 4988 kPa	1275.2
333.13 K, 5015 kPa	1275.4
333.13 K, 5055 kPa	1275.9
333.13 K, 5086 kPa	1276.3
333.13 K, 5123 kPa	1276.9
333.13 K, 5155 kPa	1277.2
333.13 K, 5191 kPa	1277.7
333.13 K, 5224 kPa	1277.9
333.13 K, 5261 kPa	1278.4
333.13 K, 5294 kPa	1278.8
333.13 K, 5325 kPa	1279.1
333.13 K, 5365 kPa	1279.6
333.13 K, 5432 kPa	1280.3
333.13 K, 5541 kPa	1281.7
333.13 K, 5612 kPa	1282.4
333.13 K, 5635 kPa	1282.8
333.13 K, 5673 kPa	1283.2
333.13 K, 25651 kPa	1419.9
333.13 K, 25679 kPa	1419.9
333.13 K, 25788 kPa	1420.5
333.13 K, 27375 kPa	1427.5
333.13 K, 27408 kPa	1427.7
333.13 K, 27436 kPa	1427.8
333.13 K, 33941 kPa	1454.3
333.13 K, 33977 kPa	1454.4
333.13 K, 34019 kPa	1454.5
333.13 K, 34054 kPa	1454.8
333.13 K, 34100 kPa	1454.9
333.13 K, 34136 kPa	1455
333.14 K, 1234 kPa	1218
333.14 K, 1254 kPa	1218.5
333.14 K, 1281 kPa	1218.9
333.14 K, 1309 kPa	1219.4
333.14 K, 1332 kPa	1220.1
333.14 K, 1355 kPa	1220.5
333.14 K, 1386 kPa	1221.1
333.14 K, 1403 kPa	1221.3
333.14 K, 1427 kPa	1221.8
333.14 K, 1448 kPa	1222.1
333.14 K, 1472 kPa	1222.6
333.14 K, 1496 kPa	1223.2
333.14 K, 1520 kPa	1223.5
333.14 K, 1540 kPa	1223.9
333.14 K, 1568 kPa	1224.4
333.14 K, 1593 kPa	1224.9
333.14 K, 1614 kPa	1225.4
333.14 K, 2164 kPa	1235.1
333.14 K, 2189 kPa	1235.5
333.14 K, 2224 kPa	1236.1
333.14 K, 2254 kPa	1236.5
333.14 K, 2277 kPa	1237
333.14 K, 2308 kPa	1237.5
333.14 K, 2330 kPa	1237.9
333.14 K, 2385 kPa	1238.7
333.14 K, 2413 kPa	1239.2
333.14 K, 2434 kPa	1239.4
333.14 K, 2460 kPa	1240
333.14 K, 2489 kPa	1240.4
333.14 K, 2516 kPa	1240.8
333.14 K, 2546 kPa	1241.2
333.14 K, 2576 kPa	1241.8
333.14 K, 2634 kPa	1242.8
333.14 K, 2657 kPa	1243.2
333.14 K, 2684 kPa	1243.6
333.14 K, 2716 kPa	1244.1
333.14 K, 2981 kPa	1248.1
333.14 K, 3011 kPa	1248.6
333.14 K, 3038 kPa	1249
333.14 K, 3071 kPa	1249.5
333.14 K, 3107 kPa	1249.9
333.14 K, 3140 kPa	1250.4
333.14 K, 3169 kPa	1251
333.14 K, 3205 kPa	1251.4
333.14 K, 4501 kPa	1269.1
333.14 K, 4531 kPa	1269.4
333.14 K, 4566 kPa	1269.9
333.14 K, 4601 kPa	1270.4
333.14 K, 4623 kPa	1270.6
333.14 K, 4661 kPa	1271
333.14 K, 4697 kPa	1271.7
333.14 K, 4727 kPa	1272
333.14 K, 5403 kPa	1280.1
333.14 K, 5469 kPa	1280.8
333.14 K, 5503 kPa	1281.2
333.14 K, 5584 kPa	1282.2
333.14 K, 5709 kPa	1283.6
333.14 K, 5750 kPa	1283.9
333.14 K, 5782 kPa	1284.4
333.14 K, 5815 kPa	1284.8
333.14 K, 5845 kPa	1285.1
333.14 K, 5879 kPa	1285.5
333.14 K, 5908 kPa	1285.8
333.14 K, 5941 kPa	1286.1
333.14 K, 5970 kPa	1286.4
333.14 K, 6009 kPa	1287
333.14 K, 6052 kPa	1287.3
333.14 K, 6090 kPa	1287.8
333.14 K, 6133 kPa	1288.1
333.14 K, 6158 kPa	1288.5
333.14 K, 6191 kPa	1289
333.14 K, 6216 kPa	1289.2
333.14 K, 6250 kPa	1289.5
333.14 K, 6472 kPa	1291.9
333.14 K, 6498 kPa	1292.3
333.14 K, 6533 kPa	1292.6
333.14 K, 6555 kPa	1292.7
333.14 K, 6594 kPa	1293.3
333.14 K, 6633 kPa	1293.6
333.14 K, 6668 kPa	1293.9
333.14 K, 6702 kPa	1294.2
333.14 K, 6728 kPa	1294.7
333.14 K, 6758 kPa	1295
333.14 K, 6922 kPa	1296.7
333.14 K, 7050 kPa	1297.8
333.14 K, 7081 kPa	1298.2
333.14 K, 7125 kPa	1298.6
333.14 K, 7151 kPa	1299
333.14 K, 7182 kPa	1299.2
333.14 K, 7209 kPa	1299.5
333.14 K, 7243 kPa	1299.9
333.14 K, 7278 kPa	1300.2
333.14 K, 7311 kPa	1300.4
333.14 K, 7341 kPa	1300.7
333.14 K, 7368 kPa	1301.1
333.14 K, 7402 kPa	1301.4
333.14 K, 7424 kPa	1301.7
333.14 K, 7460 kPa	1302.1
333.14 K, 7496 kPa	1302.4
333.14 K, 7527 kPa	1302.6
333.14 K, 7559 kPa	1303
333.14 K, 7590 kPa	1303.3
333.14 K, 7632 kPa	1303.7
333.14 K, 7670 kPa	1304.1
333.14 K, 7702 kPa	1304.3
333.14 K, 7735 kPa	1304.7
333.14 K, 7767 kPa	1305.1
333.14 K, 7795 kPa	1305.2
333.14 K, 7826 kPa	1305.5
333.14 K, 7864 kPa	1305.9
333.14 K, 7893 kPa	1306.1
333.14 K, 7930 kPa	1306.5
333.14 K, 7957 kPa	1306.8
333.14 K, 7996 kPa	1307.2
333.14 K, 8029 kPa	1307.4
333.14 K, 8057 kPa	1307.7
333.14 K, 8080 kPa	1307.9
333.14 K, 25452 kPa	1419
333.14 K, 25486 kPa	1419
333.14 K, 25524 kPa	1419.3
333.14 K, 25553 kPa	1419.5
333.14 K, 25586 kPa	1419.6
333.14 K, 25615 kPa	1419.7
333.14 K, 25704 kPa	1419.9
333.14 K, 25735 kPa	1420.1
333.14 K, 25762 kPa	1420.4
333.14 K, 25814 kPa	1420.7
333.14 K, 25854 kPa	1420.9
333.14 K, 25874 kPa	1420.9
333.14 K, 25917 kPa	1421.1
333.14 K, 25950 kPa	1421.3
333.14 K, 25976 kPa	1421.4
333.14 K, 26005 kPa	1421.5
333.14 K, 26036 kPa	1421.6
333.14 K, 26069 kPa	1421.8
333.14 K, 26295 kPa	1422.8
333.14 K, 26327 kPa	1422.9
333.14 K, 26353 kPa	1423.1
333.14 K, 26386 kPa	1423.1
333.14 K, 26411 kPa	1423.3
333.14 K, 26444 kPa	1423.3
333.14 K, 26469 kPa	1423.6
333.14 K, 26504 kPa	1423.7
333.14 K, 27209 kPa	1426.8
333.14 K, 27239 kPa	1427
333.14 K, 27284 kPa	1427.1
333.14 K, 27317 kPa	1427.3
333.14 K, 27346 kPa	1427.5
333.14 K, 27465 kPa	1428
333.14 K, 27494 kPa	1428
333.14 K, 27531 kPa	1428.3
333.14 K, 27561 kPa	1428.5
333.14 K, 27595 kPa	1428.4
333.14 K, 28013 kPa	1430.3
333.14 K, 28047 kPa	1430.5
333.14 K, 28080 kPa	1430.6
333.14 K, 28109 kPa	1430.9
333.14 K, 28138 kPa	1430.9
333.14 K, 28167 kPa	1431
333.14 K, 28201 kPa	1431.2
